According to patent US10023570B2 (Array BioPharma, Inc., priority 2015, dated 2018):
Counter-ions that a name gives are not always drawn.

Target: human KDR protein in HEK-293 cells (Homo sapiens (Human), UniProt P35968)
Test: KDR Cell Assay (phospho-KDR in HEK-293 cells expressing inducible KDR)
Type: cell-based
Details: pKDR Cell HEK 10% FBS IC50, HEK-293 cells expressing inducible KDR, VEGF stimulated, 10% FBS
How it was run: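 HEK-293 cells with inducible human KDR were treated with compound for 1 h in DMEM (0.25% DMSO final), then lysed. Phospho-KDR was quantified by Meso Scale immunoassay, expressed as percent of control, and IC50 taken where a 4-parameter logistic fit crossed 50 POC.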

human KDR protein in HEK-293 cells, sequence (P35968 20-1356): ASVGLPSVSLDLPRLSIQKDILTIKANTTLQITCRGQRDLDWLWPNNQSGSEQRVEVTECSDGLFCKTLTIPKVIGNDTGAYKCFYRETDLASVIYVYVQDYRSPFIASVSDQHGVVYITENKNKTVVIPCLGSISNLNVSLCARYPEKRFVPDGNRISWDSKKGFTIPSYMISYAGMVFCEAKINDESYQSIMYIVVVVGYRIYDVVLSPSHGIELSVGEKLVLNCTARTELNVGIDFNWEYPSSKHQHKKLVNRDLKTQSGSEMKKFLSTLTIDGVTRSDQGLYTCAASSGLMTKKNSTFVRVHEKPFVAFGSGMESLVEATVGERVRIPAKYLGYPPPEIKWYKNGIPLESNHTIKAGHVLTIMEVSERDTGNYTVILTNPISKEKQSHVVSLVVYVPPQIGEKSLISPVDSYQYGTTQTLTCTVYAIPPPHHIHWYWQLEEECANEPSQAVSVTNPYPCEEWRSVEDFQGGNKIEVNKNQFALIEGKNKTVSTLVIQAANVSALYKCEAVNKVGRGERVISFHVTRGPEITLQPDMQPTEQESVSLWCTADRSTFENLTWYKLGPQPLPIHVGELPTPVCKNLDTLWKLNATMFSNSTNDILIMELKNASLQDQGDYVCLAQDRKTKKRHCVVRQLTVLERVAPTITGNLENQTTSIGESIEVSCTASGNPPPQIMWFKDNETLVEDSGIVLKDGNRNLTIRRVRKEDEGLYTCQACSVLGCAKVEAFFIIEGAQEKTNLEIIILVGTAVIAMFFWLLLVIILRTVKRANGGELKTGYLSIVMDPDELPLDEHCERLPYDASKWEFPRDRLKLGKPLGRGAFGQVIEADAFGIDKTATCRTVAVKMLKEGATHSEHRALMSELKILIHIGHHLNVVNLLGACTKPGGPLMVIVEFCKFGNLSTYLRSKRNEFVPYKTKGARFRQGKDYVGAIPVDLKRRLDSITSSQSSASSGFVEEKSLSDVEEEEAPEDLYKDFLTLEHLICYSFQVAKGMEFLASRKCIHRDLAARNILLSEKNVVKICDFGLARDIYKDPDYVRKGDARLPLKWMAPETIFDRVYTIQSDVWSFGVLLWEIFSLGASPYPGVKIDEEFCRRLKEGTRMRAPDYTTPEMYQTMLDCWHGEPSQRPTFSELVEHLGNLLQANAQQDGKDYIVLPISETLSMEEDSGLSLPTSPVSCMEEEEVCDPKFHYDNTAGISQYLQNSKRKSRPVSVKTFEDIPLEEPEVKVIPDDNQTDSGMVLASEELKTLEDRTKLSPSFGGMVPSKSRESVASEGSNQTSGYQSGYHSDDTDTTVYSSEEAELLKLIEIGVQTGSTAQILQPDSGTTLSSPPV

Row | SMILES | IC50
1 | Cn1cc(-c2cc(-c3ccc(N4CC[C@@H](C(=O)NCCC(F)(F)F)C4)nc3)c3c(C#N)cnn3c2)cn1 [Example 259, (R)-1-(5-(3-cyano-6-(1-methyl-1H-pyrazol-4-yl)pyrazolo[1,5-a]pyridin-4-yl)pyridin-2-yl)-N-(3,3,3-trifluoropropyl)pyrrolidine-3-carboxamide] | 2770 nM
2 | Cn1cc(-c2cc(-c3ccc(N4CC[C@@H](C(=O)N5CCCC5)C4)nc3)c3c(C#N)cnn3c2)cn1 [Example 260, (R)-6-(1-methyl-1H-pyrazol-4-yl)-4-(6-(3-(pyrrolidine-1-carbonyl)pyrrolidin-1-yl)pyridin-3-yl)pyrazolo[1,5-a]pyridine-3-carbonitrile] | ≥ 5000 nM
3 | Cn1cc(-c2cc(-c3ccc(N4CC[C@H](C(=O)NCCC(F)(F)F)C4)nc3)c3c(C#N)cnn3c2)cn1 [Example 262, (S)-1-(5-(3-cyano-6-(1-methyl-1H-pyrazol-4-yl)pyrazolo[1,5-a]pyridin-4-yl)pyridin-2-yl)-N-(3,3,3-trifluoropropyl)pyrrolidine-3-carboxamide] | 617 nM
4 | N#Cc1cnn2cc(-c3cnn(C(F)F)c3)cc(-c3ccc(N4CCN(C(=O)[C@H](O)c5ccccc5)CC4)nc3)c12 [Example 268, (R)-6-(1-(difluoromethyl)-1H-pyrazol-4-yl)-4-(6-(4-(2-hydroxy-2-phenylacetyl)piperazin-1-yl)pyridin-3-yl)pyrazolo[1,5-a]pyridine-3-carbonitrile] | 497 nM
5 | CO[C@H]1CCN(C(=O)N2CCN(c3ccc(-c4cc(-c5cnn(C(F)F)c5)cn5ncc(C#N)c45)cn3)CC2)C1 [Example 269, (S)-6-(1-(difluoromethyl)-1H-pyrazol-4-yl)-4-(6-(4-(3-methoxypyrrolidine-1-carbonyl)piperazin-1-yl)pyridin-3-yl)pyrazolo[1,5-a]pyridine-3-carbonitrile] | 1700 nM
6 | Cn1ccc(-c2cc(-c3ccc(N4CCN(C(=O)[C@H](O)c5ccccc5)CC4)nc3)c3c(C#N)cnn3c2)n1 [Example 272, (R)-4-(6-(4-(2-hydroxy-2-phenylacetyl)piperazin-1-yl)pyridin-3-yl)-6-(1-methyl-1H-pyrazol-3-yl)pyrazolo[1,5-a]pyridine-3-carbonitrile] | 575 nM
7 | CC(C)CC(=O)N1CCN(c2ccc(-c3cc(-c4ccn(C)n4)cn4ncc(C#N)c34)cn2)CC1 [Example 273, 6-(1-methyl-1H-pyrazol-3-yl)-4-(6-(4-(3-methylbutanoyl)piperazin-1-yl)pyridin-3-yl)pyrazolo[1,5-a]pyridine-3-carbonitrile] | 2140 nM
8 | CO[C@H]1CCN(C(=O)N2CCN(c3ccc(-c4cc(-c5ccn(C)n5)cn5ncc(C#N)c45)cn3)CC2)C1 [Example 274, (S)-4-(6-(4-(3-methoxypyrrolidine-1-carbonyl)piperazin-1-yl)pyridin-3-yl)-6-(1-methyl-1H-pyrazol-3-yl)pyrazolo[1,5-a]pyridine-3-carbonitrile] | ≥ 5000 nM
9 | Cc1cc(-c2cc(-c3cnn(C)c3)cn3ncc(C#N)c23)cnc1N1CCN(C(=O)[C@H](O)c2ccccc2)CC1 [Example 278, (R)-4-(6-(4-(2-hydroxy-2-phenylacetyl)piperazin-1-yl)-5-methylpyridin-3-yl)-6-(1-methyl-1H-pyrazol-4-yl)pyrazolo[1,5-a]pyridine-3-carbonitrile] | 138 nM
10 | Cn1cc(-c2cc(-c3cnc(N4CCN(C(=O)[C@H](O)c5ccccc5)CC4)nc3)c3c(C#N)cnn3c2)cn1 [Example 282, (R)-4-(2-(4-(2-hydroxy-2-phenylacetyl)piperazin-1-yl)pyrimidin-5-yl)-6-(1-methyl-1H-pyrazol-4-yl)pyrazolo[1,5-a]pyridine-3-carbonitrile] | 662 nM
11 | CO[C@@H](C(=O)N1CCN(c2ncc(-c3cc(-c4cnn(C)c4)cn4ncc(C#N)c34)cn2)CC1)c1ccccc1 [Example 284, (R)-4-(2-(4-(2-methoxy-2-phenylacetyl)piperazin-1-yl)pyrimidin-5-yl)-6-(1-methyl-1H-pyrazol-4-yl)pyrazolo[1,5-a]pyridine-3-carbonitrile] | 663 nM
12 | CC(C)[C@@H](O)C(=O)N1CCN(c2ncc(-c3cc(-c4cnn(C)c4)cn4ncc(C#N)c34)cn2)CC1 [Example 285, (R)-4-(2-(4-(2-hydroxy-3-methylbutanoyl)piperazin-1-yl)pyrimidin-5-yl)-6-(1-methyl-1H-pyrazol-4-yl)pyrazolo[1,5-a]pyridine-3-carbonitrile] | 1710 nM
13 | CO[C@H]1CCN(C(=O)N2CCN(c3ncc(-c4cc(-c5cnn(C)c5)cn5ncc(C#N)c45)cn3)CC2)C1 [Example 286, (S)-4-(2-(4-(3-methoxypyrrolidine-1-carbonyl)piperazin-1-yl)pyrimidin-5-yl)-6-(1-methyl-1H-pyrazol-4-yl)pyrazolo[1,5-a]pyridine-3-carbonitrile] | 4830 nM
14 | Cn1cc(-c2cc(-c3cnc(N4CCN(C(=O)[C@H](O)c5ccccc5)CC4)cn3)c3c(C#N)cnn3c2)cn1 [Example 288, (R)-4-(5-(4-(2-hydroxy-2-phenylacetyl)piperazin-1-yl)pyrazin-2-yl)-6-(1-methyl-1H-pyrazol-4-yl)pyrazolo[1,5-a]pyridine-3-carbonitrile] | 1940 nM
15 | CO[C@H]1CCN(C(=O)N2CCN(c3cnc(-c4cc(-c5cnn(C)c5)cn5ncc(C#N)c45)cn3)CC2)C1 [Example 289, (S)-4-(5-(4-(3-methoxypyrrolidine-1-carbonyl)piperazin-1-yl)pyrazin-2-yl)-6-(1-methyl-1H-pyrazol-4-yl)pyrazolo[1,5-a]pyridine-3-carbonitrile] | 229 nM
16 | Cn1cc(-c2cc(-c3ccc(N4CCN(C(=O)OC(C)(C)C)CC4)cc3)c3c(C#N)cnn3c2)cn1 [Example 290, tert-Butyl 4-(4-(3-cyano-6-(1-methyl-1H-pyrazol-4-yl)pyrazolo[1,5-a]pyridin-4-yl)phenyl)piperazine-1-carboxylate] | 3440 nM
17 | Cn1cc(-c2cc(-c3ccc(N4CCNCC4)cc3)c3c(C#N)cnn3c2)cn1 [Example 291, 6-(1-methyl-1H-pyrazol-4-yl)-4-(4-(piperazin-1-yl)phenyl)pyrazolo[1,5-a]pyridine-3-carbonitrile dihydrochloride] | 918 nM
18 | COCC(=O)N1CCN(c2ccc(-c3cc(-c4cnn(C)c4)cn4ncc(C#N)c34)cc2)CC1 [Example 292, 4-(4-(4-(2-methoxyacetyl)piperazin-1-yl)phenyl)-6-(1-methyl-1H-pyrazol-4-yl)pyrazolo[1,5-a]pyridine-3-carbonitrile] | 1080 nM
19 | Cn1cc(-c2cc(-c3ccc(N4CCN(C(=O)CO)CC4)cc3)c3c(C#N)cnn3c2)cn1 [Example 293, 4-(4-(4-(2-hydroxyacetyl)piperazin-1-yl)phenyl)-6-(1-methyl-1H-pyrazol-4-yl)pyrazolo[1,5-a]pyridine-3-carbonitrile hydrochloride] | 532 nM
20 | Cn1cc(-c2cc(-c3ccc(N4CCN(C(=O)CC(C)(C)C)CC4)cc3)c3c(C#N)cnn3c2)cn1 [Example 294, 4-(4-(4-(3,3-dimethylbutanoyl)piperazin-1-yl)phenyl)-6-(1-methyl-1H-pyrazol-4-yl)pyrazolo[1,5-a]pyridine-3-carbonitrile] | 2100 nM
21 | CC(=O)N1CCN(c2ccc(-c3cc(-c4cnn(C)c4)cn4ncc(C#N)c34)cc2)CC1 [Example 295, 4-(4-(4-acetylpiperazin-1-yl)phenyl)-6-(1-methyl-1H-pyrazol-4-yl)pyrazolo[1,5-a]pyridine-3-carbonitrile] | 720 nM
22 | CN(C)CC(=O)N1CCN(c2ccc(-c3cc(-c4cnn(C)c4)cn4ncc(C#N)c34)cc2)CC1 [Example 296, 4-(4-(4-(2-(dimethylamino)acetyl)piperazin-1-yl)phenyl)-6-(1-methyl-1H-pyrazol-4-yl)pyrazolo[1,5-a]pyridine-3-carbonitrile] | 2350 nM
23 | Cn1cc(-c2cc(-c3ccc(N4CCN(S(C)(=O)=O)CC4)cc3)c3c(C#N)cnn3c2)cn1 [Example 297, 6-(1-methyl-1H-pyrazol-4-yl)-4-(4-(4-(methylsulfonyl)piperazin-1-yl)phenyl)pyrazolo[1,5-a]pyridine-3-carbonitrile] | 189 nM
24 | COC(=O)N1CCN(c2ccc(-c3cc(-c4cnn(C)c4)cn4ncc(C#N)c34)cc2)CC1 [Example 298, Methyl 4-(4-(3-cyano-6-(1-methyl-1H-pyrazol-4-yl)pyrazolo[1,5-a]pyridin-4-yl)phenyl)piperazine-1-carboxylate] | 1830 nM
25 | CNS(=O)(=O)N1CCN(c2ccc(-c3cc(-c4cnn(C)c4)cn4ncc(C#N)c34)cc2)CC1 [Example 299, 4-(4-(3-cyano-6-(1-methyl-1H-pyrazol-4-yl)pyrazolo[1,5-a]pyridin-4-yl)phenyl)-N-methylpiperazine-1-sulfonamide] | 151 nM
26 | Cn1cc(-c2cc(-c3ccc(C4CCNCC4)cc3)c3c(C#N)cnn3c2)cn1 [Example 301, 6-(1-methyl-1H-pyrazol-4-yl)-4-(4-(piperidin-4-yl)phenyl)pyrazolo[1,5-a]pyridine-3-carbonitrile dihydrochloride] | 158 nM
27 | Cn1cc(-c2cc(-c3ccc(C4CCN(C(=O)CC(C)(C)C)CC4)cc3)c3c(C#N)cnn3c2)cn1 [Example 302, 4-(4-(1-(3,3-dimethylbutanoyl)piperidin-4-yl)phenyl)-6-(1-methyl-1H-pyrazol-4-yl)pyrazolo[1,5-a]pyridine-3-carbonitrile] | 2990 nM
28 | C[C@H](O)Cn1cc(-c2cc(-c3ccc(N4CCN(C(=O)CC(C)(C)C)CC4)cc3)c3c(C#N)cnn3c2)cn1 [Example 304, (S)-4-(4-(4-(3,3-dimethylbutanoyl)piperazin-1-yl)phenyl)-6-(1-(2-hydroxypropyl)-1H-pyrazol-4-yl)pyrazolo[1,5-a]pyridine-3-carbonitrile] | 1610 nM
29 | C[C@@H](O)Cn1cc(-c2cc(-c3ccc(N4CCN(C(=O)CC(C)(C)C)CC4)cc3)c3c(C#N)cnn3c2)cn1 [Example 305, (R)-4-(4-(4-(3,3-dimethylbutanoyl)piperazin-1-yl)phenyl)-6-(1-(2-hydroxypropyl)-1H-pyrazol-4-yl)pyrazolo[1,5-a]pyridine-3-carbonitrile] | 1490 nM
